pIC50: −log10 of the molar value.
Test system: SYO-1 tumor spheroids, viability % test/control
Assay: Anticancer human tumor SYO-1 cell line growth inhibition;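 also: spheroids exposed to agents for 7 days before viability read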;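 as to viability, T/C: 100% = DMSO vehicle control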
Conditions: spheroids with HUVEC and MSC; for pIC50: curve of first compound; for viability, T/C: stronger effect = lower value
Outline: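 Complex spheroids of malignant cells with endothelial cells and mesenchymal stem cells; agents alone or combined, from near clinical Cmax (or 10 microM if unknown) down in half-log steps, 0.25% DMSO final.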

[2H]c1nc(C)nc([2H])c1-c1cc(NC[C@@H](C)c2cccc3c(C(=O)NC)ccnc23)ncn1 + COc1cc2c(cc1O)CCNC21CSC2c3c(OC(C)=O)c(C)c4c(c3C(COC1=O)N1C(O)C3Cc5cc(C)c(OC)c(O)c5C(C21)N3C)OCO4
pIC50 (second compound 30 pM): < 5.00 | pIC50 (second compound 94.9 pM): < 5.00 | pIC50 (second compound 0.0003 µM): > 7.50 | pIC50 (second compound 0.000949 µM): > 7.50 | pIC50 (second compound 0.003 µM): > 7.50 | viability, T/C (second compound 30 pM, first compound 0.0316 µM): 95.9% | viability, T/C (second compound 30 pM, first compound 0.1 µM): 101% | viability, T/C (second compound 30 pM, first compound 0.316 µM): 102% | viability, T/C (second compound 30 pM, first compound 1 µM): 102% | viability, T/C (second compound 30 pM, first compound 3.16 µM): 104% | viability, T/C (second compound 30 pM, first compound 10 µM): 102% | viability, T/C (second compound 94.9 pM, first compound 0.0316 µM): 97.7% | viability, T/C (second compound 94.9 pM, first compound 0.1 µM): 97.1% | viability, T/C (second compound 94.9 pM, first compound 0.316 µM): 99.6% | viability, T/C (second compound 94.9 pM, first compound 1 µM): 98.8% | viability, T/C (second compound 94.9 pM, first compound 3.16 µM): 100% | viability, T/C (second compound 94.9 pM, first compound 10 µM): 95.7% | viability, T/C (second compound 0.0003 µM, first compound 0.0316 µM): 10.9% | viability, T/C (second compound 0.0003 µM, first compound 0.1 µM): 11.6% | viability, T/C (second compound 0.0003 µM, first compound 0.316 µM): 12.2% | viability, T/C (second compound 0.0003 µM, first compound 1 µM): 11.5% | viability, T/C (second compound 0.0003 µM, first compound 3.16 µM): 13.1% | viability, T/C (second compound 0.0003 µM, first compound 10 µM): 5.66% | viability, T/C (second compound 0.000949 µM, first compound 0.0316 µM): 0.9% | viability, T/C (second compound 0.000949 µM, first compound 0.1 µM): 0.98% | viability, T/C (second compound 0.000949 µM, first compound 0.316 µM): 0.92% | viability, T/C (second compound 0.000949 µM, first compound 1 µM): 0.87% | viability, T/C (second compound 0.000949 µM, first compound 3.16 µM): 0.92% | viability, T/C (second compound 0.000949 µM, first compound 10 µM): 0.94% | viability, T/C (second compound 0.003 µM, first compound 0.0316 µM): 0.96% | viability, T/C (second compound 0.003 µM, first compound 0.1 µM): 1.13% | viability, T/C (second compound 0.003 µM, first compound 0.316 µM): 4.62% | viability, T/C (second compound 0.003 µM, first compound 1 µM): 0.12% | viability, T/C (second compound 0.003 µM, first compound 3.16 µM): 0.12% | viability, T/C (second compound 0.003 µM, first compound 10 µM): 0.2%

Cc1sc2c(c1C)C(c1ccc(Cl)cc1)=NC(CC(=O)Nc1ccc(O)cc1)c1nnc(C)n1-2 (stereo not given) + Cn1nnc2c(C(N)=O)ncn2c1=O
pIC50 (second compound 1 µM): 7.19 | pIC50 (second compound 3.16 µM): 7.20 | pIC50 (second compound 10 µM): 7.23 | pIC50 (second compound 31.6 µM): 7.27 | pIC50 (second compound 100 µM): 7.58 | viability, T/C (second compound 1 µM, first compound 0.00949 µM): 93.6% | viability, T/C (second compound 1 µM, first compound 0.03 µM): 89.6% | viability, T/C (second compound 1 µM, first compound 0.0949 µM): 29.7% | viability, T/C (second compound 1 µM, first compound 0.3 µM): 1.14% | viability, T/C (second compound 1 µM, first compound 0.949 µM): 0.56% | viability, T/C (second compound 1 µM, first compound 3 µM): 0.57% | viability, T/C (second compound 3.16 µM, first compound 0.00949 µM): 93.6% | viability, T/C (second compound 3.16 µM, first compound 0.03 µM): 89.3% | viability, T/C (second compound 3.16 µM, first compound 0.0949 µM): 28.6% | viability, T/C (second compound 3.16 µM, first compound 0.3 µM): 1.02% | viability, T/C (second compound 3.16 µM, first compound 0.949 µM): 0.71% | viability, T/C (second compound 3.16 µM, first compound 3 µM): 0.61% | viability, T/C (second compound 10 µM, first compound 0.00949 µM): 94.3% | viability, T/C (second compound 10 µM, first compound 0.03 µM): 91.3% | viability, T/C (second compound 10 µM, first compound 0.0949 µM): 21.4% | viability, T/C (second compound 10 µM, first compound 0.3 µM): 1.06% | viability, T/C (second compound 10 µM, first compound 0.949 µM): 0.76% | viability, T/C (second compound 10 µM, first compound 3 µM): 0.54% | viability, T/C (second compound 31.6 µM, first compound 0.00949 µM): 101% | viability, T/C (second compound 31.6 µM, first compound 0.03 µM): 84.8% | viability, T/C (second compound 31.6 µM, first compound 0.0949 µM): 15.5% | viability, T/C (second compound 31.6 µM, first compound 0.3 µM): 1.03% | viability, T/C (second compound 31.6 µM, first compound 0.949 µM): 0.85% | viability, T/C (second compound 31.6 µM, first compound 3 µM): 0.62% | viability, T/C (second compound 100 µM, first compound 0.00949 µM): 91.8% | viability, T/C (second compound 100 µM, first compound 0.03 µM): 44.3% | viability, T/C (second compound 100 µM, first compound 0.0949 µM): 1.77% | viability, T/C (second compound 100 µM, first compound 0.3 µM): 1.29% | viability, T/C (second compound 100 µM, first compound 0.949 µM): 0.88% | viability, T/C (second compound 100 µM, first compound 3 µM): 0.73%

From PubChem BioAssay AID1845219 (Molecular Pharmacology Branch, DTP, NCI, 2023)
